According to paper PMC5659129, “Determinants of the Inhibition of DprE1 and CYP2C9 by Antitubercular Thiophenes” (Angewandte Chemie (International Ed. in English), 2017):
≈ marks a conversion by molar mass, not a printed value. Read-outs that look alike come from different tables or passages of the source.

Tests used:
Mtb WT = assay: microbe, parasite or virus in culture; assay type: cell-based, Mycobacterium tuberculosis; conditions: for MIC: Mycobacterium tuberculosis, 168 h
M. smegmatis DprE1 WT = M. smegmatis DprE1 WT (Mycolicibacterium smegmatis, UniProt A0R607); assay: biochemical
CYP2C9 [1] = molecular target: T1, CYP2C9 (Homo sapiens, UniProt P11712); assay: in vitro; conditions: microsomes, pH 7.4
CYP2C9 [2] = molecular target: T1, CYP2C9; conditions: for IC50 ratio (CYP2C9 over DprE1): selectivity
CYP2C9 [3] = molecular target: T1, CYP2C9; assay: biochemical
CYP2D6 = CYP2D6 (Homo sapiens, UniProt P10635); conditions: microsomes
Mtb Erdman [4] = assay type: in vivo, BALB/c mouse; conditions: 3 weeks, acute phase
Mtb Erdman [5] = assay type: in vivo, BALB/c mouse; conditions: 200 mg kg−1, oral, 4 weeks, chronic phase
CYP1A2 = CYP1A2 (Homo sapiens, UniProt P05177); conditions: microsomes
Vero cell line = assay: In vitro cytotoxicity assay (MTT), Vero; conditions: up to a concentration of 100 μM
Method: In vitro cytotoxicity assay. Vero epithelial cells (from African green monkey; ATCC
CCL-81) were cultured in Dulbecco’s modified Eagle’s medium (DMEM) supplemented
with 10% fetal bovine serum (FBS) and maintained in a humidified incubator (37°C in
5% CO2). Cells were dislodged with a cell scraper, collected by centrifugation,
resuspended in fresh medium at 10^6 cells/ml, dispensed into 96-well microtiter plates
(100 ml/well), and incubated for 18 h at 37°C. Two-fold serial dilutions of test
compounds in DMEM with FBS were subsequently added, and cells were incubated for
another 72 h. In triplicate studies, the cytopathic effects of compounds were evaluated
colorimetrically by using the 3-(4, 5- dimethyl-2-thiazolyl)-2, 5-diphenyl-2H-tetrazolium
bromide (MTT) cell proliferation assay (ATCC).

HepG2 cell line = assay: In vitro cytotoxicity assay, HepG2; conditions: up to a concentration of 100 μM
CYP2C19 = CYP2C19 (Homo sapiens, UniProt P33261); conditions: microsomes
[6] = Mini-Ames mutagenicity test
hERG potassium channel = hERG potassium channel (Homo sapiens, UniProt Q12809); assay: cell-based
CYP3A4 = CYP3A4 (Homo sapiens, UniProt P08684); conditions: microsomes
[7] = MABA, 7 days, 90% reduction in fluorescence

T1 sequence (P11712 whole entry): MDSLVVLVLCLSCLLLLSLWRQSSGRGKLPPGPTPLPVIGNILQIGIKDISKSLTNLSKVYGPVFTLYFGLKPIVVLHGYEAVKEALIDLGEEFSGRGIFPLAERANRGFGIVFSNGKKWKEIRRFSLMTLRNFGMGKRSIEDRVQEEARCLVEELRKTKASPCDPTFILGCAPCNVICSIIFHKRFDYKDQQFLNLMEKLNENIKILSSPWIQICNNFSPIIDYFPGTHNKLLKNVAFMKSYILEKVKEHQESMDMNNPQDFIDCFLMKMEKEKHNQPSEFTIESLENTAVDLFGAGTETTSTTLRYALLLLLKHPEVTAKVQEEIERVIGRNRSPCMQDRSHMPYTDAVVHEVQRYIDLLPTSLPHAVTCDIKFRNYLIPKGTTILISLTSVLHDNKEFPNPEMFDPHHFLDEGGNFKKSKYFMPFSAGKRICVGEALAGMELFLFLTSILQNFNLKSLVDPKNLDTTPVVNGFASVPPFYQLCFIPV
M. smegmatis DprE1 WT, sequence (A0R607 whole entry): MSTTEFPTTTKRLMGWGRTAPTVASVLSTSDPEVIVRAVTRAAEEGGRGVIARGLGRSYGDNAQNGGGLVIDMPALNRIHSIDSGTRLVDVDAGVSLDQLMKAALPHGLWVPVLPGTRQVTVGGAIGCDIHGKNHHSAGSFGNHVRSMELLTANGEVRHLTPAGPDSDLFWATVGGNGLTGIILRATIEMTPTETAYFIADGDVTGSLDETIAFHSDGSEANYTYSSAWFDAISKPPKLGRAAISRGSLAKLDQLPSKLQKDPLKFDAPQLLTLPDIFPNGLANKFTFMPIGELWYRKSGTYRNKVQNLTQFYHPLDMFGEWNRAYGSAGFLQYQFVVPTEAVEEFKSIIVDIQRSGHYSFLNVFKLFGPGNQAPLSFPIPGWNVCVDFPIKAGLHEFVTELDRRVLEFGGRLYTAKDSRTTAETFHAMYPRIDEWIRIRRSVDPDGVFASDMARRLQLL
CYP2C19, sequence (P33261 whole entry): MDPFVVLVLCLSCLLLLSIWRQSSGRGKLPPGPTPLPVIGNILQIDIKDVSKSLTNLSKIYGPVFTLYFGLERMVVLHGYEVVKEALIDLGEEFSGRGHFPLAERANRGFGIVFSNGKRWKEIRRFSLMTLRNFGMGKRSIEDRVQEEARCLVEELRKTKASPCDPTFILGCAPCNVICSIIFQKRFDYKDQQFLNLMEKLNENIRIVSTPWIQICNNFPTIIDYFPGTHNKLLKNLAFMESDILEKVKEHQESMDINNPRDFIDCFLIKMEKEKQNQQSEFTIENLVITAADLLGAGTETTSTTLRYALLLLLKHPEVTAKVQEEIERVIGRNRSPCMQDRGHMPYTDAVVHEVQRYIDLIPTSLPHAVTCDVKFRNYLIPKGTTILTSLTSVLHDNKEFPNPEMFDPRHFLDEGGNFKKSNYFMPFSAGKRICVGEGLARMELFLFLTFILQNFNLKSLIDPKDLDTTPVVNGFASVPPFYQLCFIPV
CYP3A4, sequence (P08684 whole entry): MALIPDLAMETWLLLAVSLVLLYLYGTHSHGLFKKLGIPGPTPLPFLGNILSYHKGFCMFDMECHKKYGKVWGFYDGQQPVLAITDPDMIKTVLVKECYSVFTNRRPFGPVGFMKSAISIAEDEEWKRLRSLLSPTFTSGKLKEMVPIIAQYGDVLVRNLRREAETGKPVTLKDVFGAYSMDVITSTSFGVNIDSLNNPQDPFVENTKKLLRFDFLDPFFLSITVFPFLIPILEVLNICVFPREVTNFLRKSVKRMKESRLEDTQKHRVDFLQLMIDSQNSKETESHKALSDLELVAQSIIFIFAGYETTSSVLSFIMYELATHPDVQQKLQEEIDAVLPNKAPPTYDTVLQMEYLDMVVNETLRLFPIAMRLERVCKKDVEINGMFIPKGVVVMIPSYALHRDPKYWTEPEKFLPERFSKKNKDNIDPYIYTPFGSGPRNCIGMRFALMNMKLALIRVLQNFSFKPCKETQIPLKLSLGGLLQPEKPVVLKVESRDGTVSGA
CYP1A2, sequence (P05177 whole entry): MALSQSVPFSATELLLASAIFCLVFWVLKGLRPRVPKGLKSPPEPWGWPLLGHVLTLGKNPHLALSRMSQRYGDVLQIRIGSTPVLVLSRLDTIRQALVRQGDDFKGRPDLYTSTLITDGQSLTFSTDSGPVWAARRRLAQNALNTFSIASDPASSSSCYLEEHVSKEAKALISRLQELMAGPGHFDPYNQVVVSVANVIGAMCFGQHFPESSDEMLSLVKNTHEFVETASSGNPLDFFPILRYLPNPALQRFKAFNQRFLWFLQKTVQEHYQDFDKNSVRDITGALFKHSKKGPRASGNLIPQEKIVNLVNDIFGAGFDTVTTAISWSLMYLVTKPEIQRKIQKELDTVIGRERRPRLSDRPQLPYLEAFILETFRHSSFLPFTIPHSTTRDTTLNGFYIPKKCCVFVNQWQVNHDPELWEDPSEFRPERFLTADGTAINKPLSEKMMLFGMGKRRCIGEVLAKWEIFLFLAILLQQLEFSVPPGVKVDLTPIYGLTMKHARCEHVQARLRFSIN
CYP2D6, sequence (P10635 whole entry): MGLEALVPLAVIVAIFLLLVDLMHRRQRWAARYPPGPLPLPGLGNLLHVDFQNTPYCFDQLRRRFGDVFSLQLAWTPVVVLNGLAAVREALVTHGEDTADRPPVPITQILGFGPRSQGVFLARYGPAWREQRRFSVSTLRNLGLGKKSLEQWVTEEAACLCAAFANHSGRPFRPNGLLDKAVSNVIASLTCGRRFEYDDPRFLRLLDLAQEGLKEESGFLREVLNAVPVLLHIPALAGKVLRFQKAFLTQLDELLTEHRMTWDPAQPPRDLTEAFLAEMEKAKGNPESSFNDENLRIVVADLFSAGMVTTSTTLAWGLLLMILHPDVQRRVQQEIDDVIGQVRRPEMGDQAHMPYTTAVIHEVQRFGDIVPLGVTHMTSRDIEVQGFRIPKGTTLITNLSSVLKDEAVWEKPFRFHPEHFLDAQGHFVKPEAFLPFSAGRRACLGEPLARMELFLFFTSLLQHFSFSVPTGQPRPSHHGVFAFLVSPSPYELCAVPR
hERG potassium channel, sequence (Q12809 whole entry): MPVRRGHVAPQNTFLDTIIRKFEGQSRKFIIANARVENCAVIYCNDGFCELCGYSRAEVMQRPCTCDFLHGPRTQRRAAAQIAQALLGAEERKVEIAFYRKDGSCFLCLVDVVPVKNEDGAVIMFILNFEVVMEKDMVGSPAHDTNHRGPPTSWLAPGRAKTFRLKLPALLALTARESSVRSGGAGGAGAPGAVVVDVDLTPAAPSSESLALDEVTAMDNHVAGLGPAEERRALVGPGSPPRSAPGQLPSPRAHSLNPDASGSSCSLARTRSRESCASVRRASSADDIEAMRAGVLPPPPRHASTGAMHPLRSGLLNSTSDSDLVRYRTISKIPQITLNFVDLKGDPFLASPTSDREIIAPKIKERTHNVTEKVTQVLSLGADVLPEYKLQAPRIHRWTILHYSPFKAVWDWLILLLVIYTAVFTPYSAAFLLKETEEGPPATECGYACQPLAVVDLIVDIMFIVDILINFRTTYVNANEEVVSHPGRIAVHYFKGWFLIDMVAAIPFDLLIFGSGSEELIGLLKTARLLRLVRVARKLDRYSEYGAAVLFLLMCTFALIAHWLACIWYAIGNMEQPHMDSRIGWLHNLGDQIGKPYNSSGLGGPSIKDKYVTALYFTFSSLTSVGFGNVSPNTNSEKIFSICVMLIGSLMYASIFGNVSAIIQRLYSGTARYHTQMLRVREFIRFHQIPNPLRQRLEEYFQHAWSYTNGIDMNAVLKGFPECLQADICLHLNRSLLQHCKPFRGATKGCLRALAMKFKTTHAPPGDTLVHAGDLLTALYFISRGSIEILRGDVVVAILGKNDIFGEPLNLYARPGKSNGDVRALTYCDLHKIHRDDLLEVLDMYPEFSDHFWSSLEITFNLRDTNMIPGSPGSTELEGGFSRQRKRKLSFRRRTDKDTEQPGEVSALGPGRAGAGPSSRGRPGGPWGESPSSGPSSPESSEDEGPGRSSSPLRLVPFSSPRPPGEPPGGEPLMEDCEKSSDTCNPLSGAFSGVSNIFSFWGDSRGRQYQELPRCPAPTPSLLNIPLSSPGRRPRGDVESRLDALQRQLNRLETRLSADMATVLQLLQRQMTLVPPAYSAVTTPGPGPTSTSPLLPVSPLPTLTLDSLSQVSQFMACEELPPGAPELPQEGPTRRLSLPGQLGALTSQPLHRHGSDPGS

CCOC(=O)NC(=O)c1cc(F)sc1NC(=O)c1nc2ccccc2s1 [TCA481]
more potent than TCA1 based on MIC (Mtb WT; MIC relative to TCA1): 5 fold | MIC (Mtb WT; [7]): 0.046 ± 0.0025 µM (≈ 0.0181 µg/mL)

Cc1ccnc(NC(=O)c2ccsc2NC(=O)c2nc3cnccc3s2)n1 [TCA787]
IC50 (M. smegmatis DprE1 WT; M. smegmatis DprE1, Table 1, read-out: IC50 DprE1 WT): 96 ± 38 nM | MIC (Mtb WT; [7]): 0.44 ± 0.12 µM (≈ 0.174 µg/mL)

CCOC(=O)NC(=O)c1ccsc1NC(=O)c1ccn2cnnc2c1 [TCA582]
IC50 (CYP2C9 [1]): 1830 nM | IC50 ratio (CYP2C9 over DprE1) (CYP2C9 [2]): 33

CCOC(=O)NC(=O)c1ccsc1NC(=O)c1nc2ccccc2s1 [TCA1]
MIC (Mtb WT; [7]): 0.23 ± 0.012 µM (≈ 0.0863 µg/mL)

Cc1ccnc(NC(=O)c2ccsc2NC(=O)c2ccn3cnnc3c2)n1 [TCA711]
IC50 (M. smegmatis DprE1 WT; Figure 4D, read-out: DprE1 IC50): 30 nM | IC50 (CYP2C9 [3]): > 50000 nM | IC50 ratio (CYP2C9 over DprE1) (CYP2C9 [2]): 1515

CCOC(=O)NC(=O)c1ccsc1NC(=O)c1nc2cnccc2s1 [TCA007]
inhibition of CYP2D6 (CYP2D6): no inhibition | reduction of bacterial load in lung (Mtb Erdman [4]; 50 mg kg−1, oral): 1.7 log10 CFU | reduction of bacterial load in lung (Mtb Erdman [4]; 100 mg kg−1, oral): 2.3 log10 CFU | reduction of CFU in mouse lungs (Mtb Erdman [5]): > 1.7 log10 CFU | MIC (Mtb WT; [7]): 0.089 ± 0.0066 µM (≈ 0.0335 µg/mL) | inhibition of CYP1A2 (CYP1A2): no inhibition | cytotoxicity against Vero (Vero cell line): not cytotoxic | cytotoxicity against HepG2 (HepG2 cell line): not cytotoxic | inhibitory effect for CYP2C9 (CYP2C9 [2]; microsomes): strong inhibitory effect | inhibition of CYP2C19 (CYP2C19): no inhibition | genetic toxicity [6]: no genetic toxicity | IC50 (hERG potassium channel): > 30000 nM | inhibition of CYP3A4 (CYP3A4): no inhibition

O=C(Nc1sccc1C(=O)Nc1ncccn1)c1nc2cnccc2s1 [TCA020]
MIC WT (Mtb WT; [7]): 2.5 ± 0.48 µM (≈ 0.956 µg/mL) | MIC (Mtb WT; [7]): 2.5 µM (≈ 0.956 µg/mL)
